Our source for the Ki values is patent US9290453B2 (Merck Sharp & Dohme Corp., priority 2010, dated 2016).

The test addresses T1, hCRTH2 (Homo sapiens, UniProt Q9Y5Y4).
T1 construct: expressed in transfected cells; host or cells: HEK (human embryonic kidney) cells expressing hCRTH2
T1 sequence (Q9Y5Y4 1-395): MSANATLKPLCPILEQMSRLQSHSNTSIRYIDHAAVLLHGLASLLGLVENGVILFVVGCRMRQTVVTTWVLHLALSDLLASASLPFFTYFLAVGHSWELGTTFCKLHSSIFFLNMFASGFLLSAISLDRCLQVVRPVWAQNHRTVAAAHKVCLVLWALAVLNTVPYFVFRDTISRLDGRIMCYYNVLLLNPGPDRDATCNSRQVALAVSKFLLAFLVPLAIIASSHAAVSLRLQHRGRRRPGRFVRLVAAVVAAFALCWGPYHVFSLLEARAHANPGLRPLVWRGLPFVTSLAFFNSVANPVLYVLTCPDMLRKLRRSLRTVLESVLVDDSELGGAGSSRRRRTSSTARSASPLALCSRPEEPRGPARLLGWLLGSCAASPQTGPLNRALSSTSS
Put plainly: Radioligand Binding Assay B (scintillation proximity assay, [3H]-PGD2, HEK-hCRTH2 membranes). The settings on record: Radioligand Binding Assay B (SPA). As to the method:
Radioligand binding also was performed using scintillation proximity assay (SPA) technology in a similar way as described above in Radioligand Binding Assay A with minor modification. Assays were done at room temperature in 10 mM HEPES pH 7.4, 1 mM EDTA containing 2 mM MnCl2 and 16 nM [^3H]-PGD2 (PerkinElmer, Waltham, Mass.) (164 Ci mmol^−1), in a final volume of 0.05 mL. Competing ligands were diluted in dimethylsulfoxide (Me2SO) and added using very low volumes (50 nL). The reaction was initiated by the addition of a mixture of 3.52 μg of membrane protein prepared from a human embryonic kidney (HEK)-hCRTH2 cell line adhered to 140 ug of wheatgerm agglutinin SPA beads (PerkinElmer). Total and non-specific binding were determined in the absence and the presence of 10 μM of a CRTH2 antagonist, respectively. The reaction was routinely conducted for 60 min at room temperature followed by centrifugation for 5 minutes at 1000 RPM. The radioactivity was measured with a TopCountNXT (PerkinElmer). Results determined using the SPA-based assay were similar to those from the filtration binding assay.
For orientation: SPA uses beads or plates that emit light when radiolabelled molecules are held near them.

In general, Ki refers to a measure of affinity in units of concentration, obtained from inhibition or displacement. A high value points to weaker binding. As to `O=C(O)CCCCc1cc2cc(C(=O)N3CC(c4ccccc4)C3)ccc2nc1-c1ccc(F)cc1` [Compound 5AM, 5-(2-(4-fluorophenyl)-6-(3-phenylazetidine-1-carbonyl)quinolin-3-yl)pentanoic acid], the Ki (Table B, rated A-D) lay within 2.1 to 20 nM. The same measure, in the same setting: the same measure for `O=C(O)CCCCc1cc2cc(C(=O)N[C@@H]3CCOc4ccccc43)ccc2nc1-c1ccc(F)cc1` [Compound 5AD, (R)-5-(6-(chroman-4-ylcarbamoyl)-2-(4-fluorophenyl)quinolin-3-yl)pentanoic acid]: 2.1 to 20 nM; for `O=C(O)CCCCc1cc2cc(C(=O)N3CCN(c4ccccc4)CC3)ccc2nc1-c1ccccc1` [Compound 1Ai, 5-(2-phenyl-6-(4-phenylpiperazine-1-carbonyl)quinolin-3-yl)pentanoic acid]: 2.1 to 20 nM; for `O=C(O)CCCCc1cc2cc(C(=O)N3CCN(c4ccccn4)CC3)ccc2nc1-c1ccccc1` [Compound 1AW, 5-(2-phenyl-6-(4-(pyridin-2-yl)piperazine-1-carbonyl)quinolin-3-yl)pentanoic acid]: 20.1 to 200 nM. Still for that read-out and setting: the same measure for `N#Cc1ccccc1N1CCN(C(=O)c2ccc3nc(-c4ccc(F)cc4)c(CCCCC(=O)O)cc3c2)CC1` [Compound 5Ao, 5-(6-(4-(2-cyanophenyl)piperazine-1-carbonyl)-2-(4-fluorophenyl)quinolin-3-yl)pentanoic acid]: 2.1 to 20 nM.

Turning to `O=C(O)CCCCc1cc2cc(C(=O)N3CCC4(CC3)OCc3ccccc34)ccc2nc1-c1ccc(Cl)cc1` [Compound 5Bo, 5-(2-(4-chlorophenyl)-6-(3H-spiro[isobenzofuran-1,4′-piperidin]-1′-ylcarbonyl)quinolin-3-yl)pentanoic acid], the inhibitory constant (Ki) (Table B, rated A-D) was in the range of 2.1 to 20 nM. On the same count and under the same terms, for `N#Cc1cccnc1N1CCN(C(=O)c2ccc3nc(-c4ccccc4)c(CCCCC(=O)O)cc3c2)CC1` [Compound 1AX, 5-(6-(4-(3-cyanopyridin-2-yl)piperazine-1-carbonyl)-2-phenylquinolin-3-yl)pentanoic acid] the value was 20.1 to 200 nM; for `O=C(O)CCCCc1cc2cc(C(=O)N3CCN(c4ccccc4C(F)(F)F)CC3)ccc2nc1-c1ccc(F)cc1` [Compound 5AR, 5-(2-(4-fluorophenyl)-6-(4-(2-(trifluoromethyl)phenyl)piperazine-1-carbonyl)quinolin-3-yl)pentanoic acid], 2.1 to 20 nM. Molecule `CC1(C)CC(NC(=O)c2ccc3nc(-c4ccc(Cl)cc4)c(CCCCC(=O)O)cc3c2)c2ccccc2O1` (stereo not drawn) [Compound 5BH, 5-(2-(4-chlorophenyl)-6-((2,2-dimethylchroman-4-yl)carbamoyl)quinolin-3-yl)pentanoic acid] had a Ki (values in text) of 27.3 nM and a Ki (Table B, rated A-D) of 20.1 to 200 nM. The molecule `Cc1ccc(N2CCN(C(=O)c3ccc4nc(-c5ccc(Cl)cc5)c(CCCCC(=O)O)cc4c3)CC2)cc1` [Compound 5BT, 5-(2-(4-chlorophenyl)-6-(4-(p-tolyl)piperazine-1-carbonyl)quinolin-3-yl)pentanoic acid] gave a Ki (Table B, rated A-D) of 2.1 to 20 nM. Same read-out and setting: for `Cc1ccccc1N1CCN(C(=O)c2ccc3nc(-c4ccccc4)c(CCCCC(=O)O)cc3c2)CC1` [Compound 1BB, 5-(2-phenyl-6-(4-(o-tolyl)piperazine-1-carbonyl)quinolin-3-yl)pentanoic acid] the value was 2.1 to 20 nM.
